US4042695A, “Thiaxanthene derivatives, compositions thereof and methods of treating therewith” (priority 1972, dated 1977)
Counter-ions that a name gives are not always drawn. Like-named read-outs stand apart in the source and are kept apart here.

Columns and labels:
[1] = tested on: NMRI male mice; test: Methylphenidate antagonism in mice; format: in vivo; conditions: for ED50: Mus musculus, ip
Protocol: 1. As animals were used NMRI male mice weighing 18-25 grams.
3 × 2 or 5 × 2 mice are used for each dose level. Thirty minutes, 1 hour, 2 hours, 3 hours etc. after i.p. injection of test substance, methylphenidate, 60 mg/kg, is injected s.c. At each time interval separate groups of mice were used. After administration of methylphenidate the mice are placed in the observation cages, 2 in each cage, where they remain for 1 hour. The cages are placed on corrugated paper, the corrugations facing upwards. It is examined whether or not the mice have been biting the corrugated paper. […] The peak effect was determined for the test substances and also for a number of known neuroleptics.

[2] = Catalepsy-inducing effect in rats; format: in vivo, male Wistar rats; conditions: rat, in vivo, sc
Protocol: (§1) Reference is made to L. Juluo: "On the Interaction between Neuroleptics and Antiparkinson Drugs." Modern Problems of Pharmacopsychiatry, vol. 5, pg, 50-54. The test may be described as follows:
(§2) Five animals are used at each dose level.
(§3) The test compound is injected subcutaneously (s.c.)
(§4) Injection volume is 5 ml of the vehicle/kg b.w.
(§5) Except when otherwise stated saline is used as vehicle.
(§6) The animals are placed in the middle of a vertical wire netting (50 cm/49 cm) 60, 120, 180, 240, 300 and 360 minutes after injection of the test compound.
(§7) The animals are considered cataleptic when they remain immobile during a period of 15 seconds. This cataleptic reaction is designated: + (plus). Untreated animals climb normally up and down the wire netting. The absence of catalepsy is designated: - (minus). The results are expressed as fractions as follows: 0/5, 1/5, 2/5, 3/5, 4/5 and 5/5 in which 0, 1, 2, 3,4 and 5 represent the number of cataleptic animals out of five animals tested.

[3] = tested on: male Wistar rats; test: Catalepsy-inducing effect in rats; format: in vivo; conditions: catalepsy (rats) / methylphenidate antagonism peak effect (mice)
Protocol: as §1, §2, §3, §4, §5, §6, §7

[4] = pure α-isomers of known neuroleptics; cited from earlier work
[5] = tested on: adult purebred Beagle dogs; test: Apomorphine antagonism in dogs; format: in vivo
Source text: Especially when testing esters of the compounds of Formula I it has been found advantageous to use the wellrecognized test which is based upon the fact that strong neuroleptics antagonize apomorphine induced vomiting in dogs. The test is described by P. A. J. Janssen, C. J. E. Niemegeers and K. H. L. Schellehaus: "Is it possible to predict the clinical effects of neuroleptic drugs (major tranquillizers) from animal data" ?, Part II, Arzneimittel Forschung, 15, 1196-1206, 1965. In order to evaluate esters of the compounds of Formula I a modified method is described by M. Nymark et al. in Acta pharmacol. et toxicol. 1973, 33, 363-376. The test may be described shortly as follows:
As animals were used adult purebred Beagle dogs of either sex. The threshold-dose of apomorphine hydrochloride for the induction of vomiting in the dogs has been determined to be 0.025 mg/kg intravenously. After this dose vomiting occurs within a few minutes of the injection. Four dogs were used for each dose level of the drug, which was injected subcutaneously at the back of the neck. At different times after the drug administration the dogs were then challenged with apomorphine according to an "up-and-down" schedule using the dose-range 0.025- 0.400 mg/kg intravenously geometrically spaced. […] In this way it was possible to estimate at which level of apomorphine the dogs were protected at a given time. The dogs were fed half an hour before testing to ensure an easy vomiting.

[6] = tested on: rats; test: Antagonism of amphetamine-induced stereotyped behaviour in rats; format: in vivo
Protocol: The modification used by us was as follows:
The animals were then placed in individual cages. […] The absence of stereotypy was interpreted as a drug effect. ED50 values for protection against stereotypy were determined. All compounds were tested at a minimum of three dose levels using 10 rats per dose, and the observer was kept unaware of the identity of the groups until after the experiment.

[7] = mice, i.p., 24 h after injection, read-out: Methylphenidate antagonism ED50, 24 h
[8] = mice, i.p., peak effect, methylphenidate 60 mg/kg s.c., read-out: Methylphenidate antagonism, peak effect ED50
[9] = rats, s.c., dose producing catalepsy in 50% of the animals, read-out: Catalepsy ED50 max.
[10] = read-out: Methylphenidate antagonism, peak effect ED50

SMILES | ED50 [1, 7] [mg/kg] | ED50 [1, 8] [mg/kg] | Ratio Cat./Meth (catalepsy/methylphenidate antagonism) [3] | ED50 [2, 9] [mg/kg] | also measured
OCCN1CCN(CCCC2c3ccc(F)cc3Sc3ccc(C(F)(F)F)cc32)CC1 (stereo not drawn) [Substance 1] | 1.66 | 0.04 |  |  | ED50 [2]: 0.9 mg/kg
CN1CCN(CCCC2c3ccc(F)cc3Sc3ccc(C(F)(F)F)cc32)CC1 (stereo not drawn) [Substance 2, 2-trifluoromethyl-6-fluoro-9-(3-(4-methyl-1-piperazinyl)propyl)thiaxanthene] | > 10 | 0.3 | 10 | 3.1 | duration of peak effect ([1]; mice, i.p.): > 5 h
OCCN1CCN(CCCC2c3ccc(F)cc3Sc3ccc(Cl)cc32)CC1 (stereo not drawn) [Substance 3, 2-chloro-6-fluoro-9-(3-(4-(2-hydroxyethyl)-1-piperazinyl)propyl)-thiaxanthene] | 7.1 | 0.8 | 3.4 | 2.7 | duration of peak effect ([1]; mice, i.p.): > 5 h
CN1CCN(CCCC2c3ccc(F)cc3Sc3ccc(S(=O)(=O)N(C)C)cc32)CC1 (stereo not drawn) [Substance 4, 2-dimethylsulfamoyl-6-fluoro-9-(3-(4-methylpiperazine-1-yl)propyl)-thiaxanthene] | > 5 | 1 | 3.1 | 3.1 | 
CN1CCN(CCC=C2c3ccc(F)cc3Sc3ccc(S(=O)(=O)N(C)C)cc32)CC1 [Substance 5, 2-dimethylsulfamoyl-6-fluoro-9-(3-(4-methylpiperazine-1-yl)propylidene)-thiaxanthene] | > 10 | 0.4 | 2.5 | 1 | duration of peak effect ([1]; mice, i.p.): > 5 h
OCCN1CCN(CCC=C2c3ccc(F)cc3Sc3ccc(C(F)(F)F)cc32)CC1 [Substance 6] | 0.24 | 0.05 |  | 0.12 | 
OCCN1CCN(CCC=C2c3ccc(F)cc3Sc3ccc(Cl)cc32)CC1 [Substance 7] | > 10 | 0.4 | 5 | 2 | duration of peak effect ([1]; mice, i.p.): > 5 h
OCCN1CCN(CCCC2c3ccc(Cl)cc3Sc3ccc(C(F)(F)F)cc32)CC1 (stereo not drawn) [Substance 8, reference compound] |  | 4 | > 5 | > 20 | 
OCCN1CCN(CCCC2c3cc(C(F)(F)F)ccc3Sc3c(Cl)cccc32)CC1 (stereo not drawn) [Substance 9, reference compound] |  | 14 | 1.5 | > 20 | 
OCCN1CCN(CCCC2c3cc(C(F)(F)F)ccc3Sc3c2cccc3C(F)(F)F)CC1 (stereo not drawn) [Substance 10, reference compound] |  | > 10 |  | > 20 | 
OCCN1CCN(CCCC2c3ccc(C(F)(F)F)cc3Sc3ccc(C(F)(F)F)cc32)CC1 (stereo not drawn) [Substance 11, reference compound] |  | > 10 |  | > 20 | 
CN(C)S(=O)(=O)c1ccc2c(c1)C(=CCCN1CCC(CCO)CC1)c1ccc(F)cc1S2 [Substance 12, 2-Dimethylsulfamoyl-6-fluoro-9-(3-(4-(2-hydroxyethyl)-1-piperidyl)propylidene)-thiaxanthene] | > 10 | 0.87 | 0.8 | 0.69 | 
OCCC1CCN(CCC=C2c3ccc(F)cc3Sc3ccc(C(F)(F)F)cc32)CC1 [Substance 13] |  |  |  | 0.05 | ED50 ([1]; 24 h, read-out: Methylphenidate antagonism ED50, 24 h): 0.03 mg/kg; ED50 [1, 10]: 0.03 mg/kg
OCCC1CCN(CCCC2c3ccc(F)cc3Sc3ccc(C(F)(F)F)cc32)CC1 (stereo not drawn) [Substance 14, 2-Trifluoromethyl-6-fluoro-9-(3-(4-(2-hydroxyethyl)-1-piperidyl)propyl)-thiaxanthene] | 3.6 | 0.25 | 0.8 | 0.21 | 
OCCC1CCN(CCC=C2c3ccc(F)cc3Sc3ccc(Cl)cc32)CC1 [Substance 15, 2-chloro-6-fluoro-9-(3-(4-(2-hydroxyethyl)piperidin-1-yl)propylidene)thiaxanthene] | 0.27 | 0.08 | 0.9 | 0.07 | 
CN1CCN(CC/C=C2/c3ccccc3Sc3ccc(S(=O)(=O)N(C)C)cc32)CC1 [Thiothixene, reference compound] | > 40 | 0.4 | 0.14 |  | activity of the α-isomer relative to the β-isomer (in words) [4]: most active isomers; ED50 [2]: 0.06 mg/kg
CN1CCc2cccc3c2[C@H]1Cc1ccc(O)c(O)c1-3 [apomorphine hydrochloride, reference compound] |  |  |  |  | minimal effective dose ([5]; Canis lupus familiaris, iv, intravenously, read-out: threshold-dose for the induction of vomiting): 0.025 mg/kg
CCCCCCCCCCCCCCCCCCCCCC(=O)OCCC1CCN(CCC=C2c3ccc(F)cc3Sc3ccc(C(F)(F)F)cc32)CC1 [behenic acid ester of Lu 12-331, behenic acid ester of the alpha-isomer of 2-trifluoromethyl-6-fluoro-9-(3-(4-(2-hydroxyethyl)-1-piperidyl)propylidene)-thiaxanthene] |  |  |  |  | duration of protection against amphetamine-induced stereotypies ([6]; 5 mg/kg s.c.): 21 days; sedation ([6]; 5 mg/kg s.c.): hardly any sedation; sedation compared with the palmitic acid ester ([5]; 1 mg/kg subcutaneously as Lu 12-331, first week): less sedation in the first week; duration of maximal protection ([5]; 1.6 mg/kg s.c. of ester): 15 days; time after which the effect had disappeared ([5]; 1.6 mg/kg s.c. of ester): 26 days; maximal protection against apomorphine ([5]; 1.6 mg/kg s.c. of ester ~ 1 mg/kg of Lu 12-331): 16 × threshold dose of apomorphine; protection against apomorphine 21 days after the injection ([5]; 1.6 mg/kg s.c. of ester, 21 days): ~ 12 × threshold dose; sedation ([5]; 1.6 mg/kg s.c. of ester, at any time): No sedation
CN(C)CCCN1c2ccccc2Sc2ccc(Cl)cc21 [chlorpromazine, reference compound] |  |  | 1.0 |  | ED50 [1, 10]: 4 mg/kg; ED50 [2]: 4 mg/kg
CCCCCCCCCCCCCCCC(=O)OCCC1CCN(CCC=C2c3ccc(F)cc3Sc3ccc(C(F)(F)F)cc32)CC1 [palmitic acid ester of Lu 12-331, palmitic acid ester of the alpha-isomer of 2-trifluoromethyl-6-fluoro-9-(3-(4-(2-hydroxyethyl)-1-piperidyl)propylidene)-thiaxanthene] |  |  |  |  | sedation ([6]; 2-5 mg/kg s.c.): pronounced sedation lasting for several days
CCCCCCCCCC(=O)OCCN1CCN(CC/C=C2/c3ccccc3Sc3ccc(C(F)(F)F)cc32)CC1 [reference compound] |  |  |  |  | day after the injection on which the effect had disappeared ([5]; 2 mg/kg s.c.): 11 days; degree of protection against apomorphine ([5]; 2 mg/kg s.c.): 3 × threshold dose
OCCN1CCN(CC/C=C2/c3ccccc3Sc3ccc(Cl)cc32)CC1 [α-Clopenthixol, reference compound] | > 40 | 0.7 | 0.7 |  | activity of the α-isomer relative to the β-isomer (in words) [4]: most active isomers; duration of peak effect ([1]; mice, i.p.): 5 h; ED50 [2]: 0.45 mg/kg
OCCN1CCN(CC/C=C2/c3ccccc3Sc3ccc(C(F)(F)F)cc32)CC1 [α-Flupenthixol, reference compound] | 17 | 0.07 | 1.74 |  | activity of the α-isomer relative to the β-isomer (in words) [4]: most active isomers; duration of peak effect ([1]; mice, i.p.): 6 h; ED50 [2]: 0.12 mg/kg
